Test results reported in publication PMC8253220, “Molecular design, synthesis and in vitro biological evaluation of thienopyrimidine–hydroxamic acids as chimeric kinase HDAC inhibitors: a challenging approach to combat cancer” (Journal of Enzyme Inhibition and Medicinal Chemistry, 2021).
“And” between values parts separate entries of the source, which are not always exact repeats. Equal entries are not always repeated.

What was measured:
Assay in all cases: NCI one-dose screen
Type in all cases: cell-based, human
BT-549 = conditions: Breast BT-549, 10 µM single dose
Summary of the method: (§1)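 At 10 μM, a single concentration, compounds were evaluated for antiproliferative effect in the NCI 60-line screen, with growth expressed relative to untreated control cells.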

CAKI-1 = conditions: Renal CAKI-1, 10 µM single dose
Summary of the method: as §1

COLO 205 = conditions: Colon COLO 205, 10 µM single dose
Summary of the method: as §1

DU-145 = conditions: Prostate DU-145, 10 µM single dose
Summary of the method: as §1

HCC-2998 = conditions: Colon HCC-2998, 10 µM single dose
Summary of the method: as §1

HL-60(TB) = conditions: Leukemia HL-60(TB), 10 µM single dose
Summary of the method: as §1

HOP-62 = conditions: NSCLC HOP-62, 10 µM single dose
Summary of the method: (§2)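 One concentration (10 μM) applied to each line of the full NCI-60 panel; percent growth compared against untreated cells.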

HOP-92 = conditions: NSCLC HOP-92, 10 µM single dose
Summary of the method: as §1

HS 578T = conditions: Breast HS 578T, 10 µM single dose
Summary of the method: as §1

IGROV1 = conditions: Ovarian IGROV1, 10 µM single dose
Summary of the method: as §1

K-562 = conditions: Leukemia K-562, 10 µM single dose
Summary of the method: as §1

KM12 = conditions: Colon KM12, 10 µM single dose
Summary of the method: as §2

LOX IMVI = conditions: Melanoma LOX IMVI, 10 µM single dose
Summary of the method: as §1

MCF7 = conditions: Breast MCF7, 10 µM single dose
Summary of the method: as §2

MDA-MB-435 = conditions: Melanoma MDA-MB-435, 10 µM single dose
Summary of the method: as §1

MDA-MB-468 = conditions: for Growth Percent: Breast MDA-MB-468, 10 µM single dose
Summary of the method: as §2

MOLT-4 = conditions: Leukemia MOLT-4, 10 µM single dose
Summary of the method: as §2

NCI-H226 = conditions: for Growth Percent: NSCLC NCI-H226, 10 µM single dose
Summary of the method: (§3)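 Single dose of 10 μM tested across the full NCI-60 cell panel. Values are percent growth inhibition relative to untreated control cells, following standard NCI methodology.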

NCI-H23 = conditions: NSCLC NCI-H23, 10 µM single dose
Summary of the method: as §2

NCI-H322M = conditions: NSCLC NCI-H322M, 10 µM single dose
Summary of the method: as §1

NCI-H460 = conditions: NSCLC NCI-H460, 10 µM single dose
Summary of the method: as §1

OVCAR-5 = conditions: Ovarian OVCAR-5, 10 µM single dose
Summary of the method: as §1

OVCAR-8 = conditions: Ovarian OVCAR-8, 10 µM single dose
Summary of the method: as §1

PC-3 = conditions: Prostate PC-3, 10 µM single dose
Summary of the method: as §1

RPMI-8226 = conditions: Leukemia RPMI-8226, 10 µM single dose
Summary of the method: as §1

SF-268 = conditions: CNS SF-268, 10 µM single dose
Summary of the method: as §2

SF-295 = conditions: CNS SF-295, 10 µM single dose
Summary of the method: as §1

SK-MEL-28 = conditions: Melanoma SK-MEL-28, 10 µM single dose
Summary of the method: as §1

SK-MEL-2 = conditions: Melanoma SK-MEL-2, 10 µM single dose
Summary of the method: as §2

SN12C = conditions: Renal SN12C, 10 µM single dose
Summary of the method: as §1

SNB-19 = conditions: CNS SNB-19, 10 µM single dose
Summary of the method: as §2

SR = conditions: Leukemia SR, 10 µM single dose
Summary of the method: as §1

SW-620 = conditions: Colon SW-620, 10 µM single dose
Summary of the method: as §1

T-47D = conditions: Breast T-47D, 10 µM single dose
Summary of the method: as §1

U251 = conditions: CNS U251, 10 µM single dose
Summary of the method: as §3

UACC-257 = conditions: Melanoma UACC-257, 10 µM single dose
Summary of the method: as §1

UO-31 = conditions: for Growth Percent: Renal UO-31, 10 µM single dose
Summary of the method: as §3

Q: Which results are given for Cc1c(C(=O)NCCCC(=O)NO)sc2ncnc(Nc3ccc(Cl)cc3)c12 [Compound 20c, 4–(4-chlorophenylamino)-N-(4-(hydroxyamino)-4-oxobutyl)-5-methylthieno[2,3-d]pyrimidine-6-carboxamide]?
A: Growth Percent (BT-549): 116.5%; Growth Percent (CAKI-1): 93.0% and 93.08%; Growth Percent (COLO 205): 117.8% and 117.81%; Growth Percent (DU-145): 116.8% and 116.86%; Growth Percent (HCC-2998): 102.4% and 102.48%; Growth Percent (HL-60(TB)): 103.4% and 103.41%; Growth Percent (HOP-62): 102.5% and 102.52%; Growth Percent (HOP-92): 111.8% and 111.83%; Growth Percent (HS 578T): 99.4% and 99.45%; Growth Percent (IGROV1): 81.1% and 81.14%; Growth Percent (K-562): 108.0%; Growth Percent (KM12): 101.7% and 101.78%; Growth Percent (LOX IMVI): 99.2% and 99.24%; Growth Percent (MCF7): 91.4% and 91.44%; Growth Percent (MDA-MB-435): 103.8% and 103.83%; Growth Percent (MDA-MB-468): 110.9% and 110.91%; Growth Percent (MOLT-4): 108.7% and 108.77%; Growth Percent (NCI-H226): 92.0% and 92.02%; Growth Percent (NCI-H23): 94.9% and 94.98%; Growth Percent (NCI-H322M): 101.3% and 101.35%; Growth Percent (NCI-H460): 101.9% and 101.95%; Growth Percent (OVCAR-5): 109.8% and 109.86%; Growth Percent (OVCAR-8): 105.5%; Growth Percent (PC-3): 101.4% and 101.49%; Growth Percent (RPMI-8226): 103.6% and 103.64%; Growth Percent (SF-268): 97.2% and 97.29%; Growth Percent (SF-295): 101.19%; Growth Percent (SK-MEL-28): 112.3% and 112.39%; Growth Percent (SK-MEL-2): 106.2% and 106.25%; Growth Percent (SN12C): 100.0% and 100.04%; Growth Percent (SNB-19): 99.1% and 99.11%; Growth Percent (SR): 102.6% and 102.62%; Growth Percent (SW-620): 102.3% and 102.37%; Growth Percent (T-47D): 105.2% and 105.24%; Growth Percent (U251): 103.1% and 103.12%; Growth Percent (UACC-257): 112.8% and 112.86%; Growth Percent (UO-31): 81.5% and 81.51%

Q: What does the source list for Cc1c(C(=O)NCCCC(=O)NO)sc2ncnc(Nc3ccc(F)c(Cl)c3)c12 [Compound 20d, 4–(3-chloro-4-fluorophenylamino)-N-(4-(hydroxyamino)-4-oxobutyl)-5-methylthieno[2,3-d]pyrimidine-6-carboxamide]?
A: Growth Percent (BT-549): 117.9% and 117.96%; Growth Percent (CAKI-1): 92.1% and 92.19%; Growth Percent (COLO 205): 119.1% and 119.14%; Growth Percent (DU-145): 109.9% and 109.99%; Growth Percent (HCC-2998): 104.1% and 104.19%; Growth Percent (HL-60(TB)): 104.6% and 104.62%; Growth Percent (HOP-62): 105.6% and 105.66%; Growth Percent (HOP-92): 118.7% and 118.75%; Growth Percent (HS 578T): 99.9% and 99.99%; Growth Percent (IGROV1): 98.9% and 98.94%; Growth Percent (K-562): 117.4% and 117.47%; Growth Percent (KM12): 101.5% and 101.54%; Growth Percent (LOX IMVI): 96.3%; Growth Percent (MCF7): 91.4% and 91.48%; Growth Percent (MDA-MB-435): 101.6% and 101.67%; Growth Percent (MDA-MB-468): 83.8% and 83.88%; inhibition at 10 µM (MDA-MB-468; Homo sapiens, breast MDA-MB-468, 10 μM): 16.2%; Growth Percent (MOLT-4): 109.8% and 109.84%; inhibition at 10 µM (NCI-H226; Homo sapiens, NSCLC NCI-H226, 10 μM): 11.3%; Growth Percent (NCI-H226): 88.7% and 88.71%; Growth Percent (NCI-H23): 98.9% and 98.94%; Growth Percent (NCI-H322M): 105.2% and 105.25%; Growth Percent (NCI-H460): 101.8% and 101.82%; Growth Percent (OVCAR-5): 100.1% and 100.15%; Growth Percent (OVCAR-8): 99.6% and 99.61%; Growth Percent (PC-3): 105.3% and 105.36%; Growth Percent (RPMI-8226): 108.7% and 108.75%; Growth Percent (SF-268): 95.2%; Growth Percent (SF-295): 101.9%; Growth Percent (SK-MEL-28): 111.4% and 111.42%; Growth Percent (SK-MEL-2): 113.2% and 113.22%; Growth Percent (SN12C): 103.5% and 103.55%; Growth Percent (SNB-19): 98.1% and 98.16%; Growth Percent (SR): 110.0% and 110.02%; Growth Percent (SW-620): 103.1% and 103.17%; Growth Percent (T-47D): 112.6% and 112.64%; Growth Percent (U251): 99.1% and 99.18%; Growth Percent (UACC-257): 103%; inhibition at 10 µM (UO-31; Homo sapiens, renal UO-31, 10 μM): 23.7%; Growth Percent (UO-31): 76.3% and 76.32%
